Laboratory results reported in ChEMBL document CHEMBL4007458, “1-ethyl-3-(6-methylphenanthridine-8-il) urea modulates TLR3/9 activation and induces selective pro-inflammatory cytokine expression in vitro” (Bioorg Med Chem Lett, 2017).
Activity calls are given as the source filed them. The rule behind the calls is not given here.

Key:
PBMC [1] = experiment: Immunomodulatory activity in human PBMC assessed as induction of IL-6 secretion at 5 uM after 24 hrs by ELISA; type: functional, cell-based
PBMC [2] = experiment: Immunomodulatory activity in human PBMC assessed as induction of IL-6 secretion at 16 uM after 24 hrs by ELISA; type: functional, cell-based
[3] = molecular target: T1, Toll-like receptor 8 (Homo sapiens) (UniProt Q9NR97); experiment: Activation of human TLR8 expressed in HEK293 cells assessed as induction of NF-kB after 18 hrs by luciferase reporter gene assay; type: cell-based
T1 sequence (whole entry): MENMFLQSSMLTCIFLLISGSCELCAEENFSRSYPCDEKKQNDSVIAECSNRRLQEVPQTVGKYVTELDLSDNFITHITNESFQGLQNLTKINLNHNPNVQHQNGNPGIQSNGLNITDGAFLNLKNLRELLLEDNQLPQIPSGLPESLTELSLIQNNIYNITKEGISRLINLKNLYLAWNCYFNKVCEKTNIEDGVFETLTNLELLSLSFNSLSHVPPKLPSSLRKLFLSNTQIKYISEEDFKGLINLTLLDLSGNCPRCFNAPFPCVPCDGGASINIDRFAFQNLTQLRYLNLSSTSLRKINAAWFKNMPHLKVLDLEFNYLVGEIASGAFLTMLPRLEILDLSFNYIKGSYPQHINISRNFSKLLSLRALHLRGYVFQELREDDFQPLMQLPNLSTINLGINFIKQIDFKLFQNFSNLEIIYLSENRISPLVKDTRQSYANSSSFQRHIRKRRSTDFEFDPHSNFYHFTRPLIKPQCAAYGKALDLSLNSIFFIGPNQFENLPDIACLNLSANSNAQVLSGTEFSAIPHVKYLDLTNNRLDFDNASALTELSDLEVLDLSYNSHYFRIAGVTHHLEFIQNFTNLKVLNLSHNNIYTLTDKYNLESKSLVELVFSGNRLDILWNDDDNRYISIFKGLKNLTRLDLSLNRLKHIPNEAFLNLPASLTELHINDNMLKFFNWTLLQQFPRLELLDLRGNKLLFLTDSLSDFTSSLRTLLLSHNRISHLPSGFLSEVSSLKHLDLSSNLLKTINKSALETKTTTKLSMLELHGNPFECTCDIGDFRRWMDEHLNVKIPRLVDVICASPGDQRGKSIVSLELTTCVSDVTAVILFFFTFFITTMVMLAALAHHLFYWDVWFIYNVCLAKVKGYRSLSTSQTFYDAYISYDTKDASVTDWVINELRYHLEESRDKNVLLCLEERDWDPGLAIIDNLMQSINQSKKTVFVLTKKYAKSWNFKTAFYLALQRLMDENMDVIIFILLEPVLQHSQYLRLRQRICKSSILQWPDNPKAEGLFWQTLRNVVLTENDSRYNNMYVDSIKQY

[4] = molecular target: T2, Toll-like receptor 7 (Homo sapiens) (UniProt Q9NYK1); experiment: Activation of human TLR7 expressed in HEK293 cell assessed as induction of NF-kB after 18 hrs by luciferase reporter gene assay; type: cell-based
T2 sequence (whole entry): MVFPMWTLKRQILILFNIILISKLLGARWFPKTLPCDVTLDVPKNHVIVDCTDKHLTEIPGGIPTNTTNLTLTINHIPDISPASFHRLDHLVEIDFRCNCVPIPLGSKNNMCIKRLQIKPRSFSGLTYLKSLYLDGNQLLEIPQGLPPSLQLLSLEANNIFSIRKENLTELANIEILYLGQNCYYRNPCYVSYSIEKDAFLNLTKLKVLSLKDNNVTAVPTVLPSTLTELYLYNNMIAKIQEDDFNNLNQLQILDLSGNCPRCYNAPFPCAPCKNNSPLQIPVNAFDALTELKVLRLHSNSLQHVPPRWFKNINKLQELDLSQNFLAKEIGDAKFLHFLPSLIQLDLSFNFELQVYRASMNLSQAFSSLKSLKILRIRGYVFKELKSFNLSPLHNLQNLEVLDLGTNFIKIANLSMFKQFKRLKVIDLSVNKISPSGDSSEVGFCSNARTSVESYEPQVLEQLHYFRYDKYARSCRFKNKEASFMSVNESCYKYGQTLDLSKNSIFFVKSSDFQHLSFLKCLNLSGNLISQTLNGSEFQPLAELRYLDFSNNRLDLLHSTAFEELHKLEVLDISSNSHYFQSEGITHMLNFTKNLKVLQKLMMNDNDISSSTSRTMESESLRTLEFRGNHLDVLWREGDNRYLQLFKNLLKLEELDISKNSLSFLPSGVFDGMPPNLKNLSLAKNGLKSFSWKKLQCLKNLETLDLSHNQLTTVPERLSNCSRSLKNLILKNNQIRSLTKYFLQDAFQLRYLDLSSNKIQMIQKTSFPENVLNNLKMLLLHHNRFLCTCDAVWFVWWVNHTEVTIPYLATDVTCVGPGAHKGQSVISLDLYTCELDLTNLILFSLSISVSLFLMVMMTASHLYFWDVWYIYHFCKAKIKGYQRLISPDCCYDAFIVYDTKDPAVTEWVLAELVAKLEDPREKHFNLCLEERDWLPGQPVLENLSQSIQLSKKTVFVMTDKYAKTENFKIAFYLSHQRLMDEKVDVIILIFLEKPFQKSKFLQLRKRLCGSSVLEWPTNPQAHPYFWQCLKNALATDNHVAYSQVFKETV

PBMC [5] = experiment: Immunomodulatory activity in human PBMC assessed as induction of TNFalpha secretion at 10 uM after 24 hrs by ELISA; type: functional, cell-based
[6] = molecular target: T3, Toll-like receptor 9 (Homo sapiens) (UniProt Q9NR96); experiment: Inhibition of TLR9 in human PBMC assessed as reduction in ODN2006-stimulated IL-8 expression at 1 to 10 uM by ELISA
T3 sequence (whole entry): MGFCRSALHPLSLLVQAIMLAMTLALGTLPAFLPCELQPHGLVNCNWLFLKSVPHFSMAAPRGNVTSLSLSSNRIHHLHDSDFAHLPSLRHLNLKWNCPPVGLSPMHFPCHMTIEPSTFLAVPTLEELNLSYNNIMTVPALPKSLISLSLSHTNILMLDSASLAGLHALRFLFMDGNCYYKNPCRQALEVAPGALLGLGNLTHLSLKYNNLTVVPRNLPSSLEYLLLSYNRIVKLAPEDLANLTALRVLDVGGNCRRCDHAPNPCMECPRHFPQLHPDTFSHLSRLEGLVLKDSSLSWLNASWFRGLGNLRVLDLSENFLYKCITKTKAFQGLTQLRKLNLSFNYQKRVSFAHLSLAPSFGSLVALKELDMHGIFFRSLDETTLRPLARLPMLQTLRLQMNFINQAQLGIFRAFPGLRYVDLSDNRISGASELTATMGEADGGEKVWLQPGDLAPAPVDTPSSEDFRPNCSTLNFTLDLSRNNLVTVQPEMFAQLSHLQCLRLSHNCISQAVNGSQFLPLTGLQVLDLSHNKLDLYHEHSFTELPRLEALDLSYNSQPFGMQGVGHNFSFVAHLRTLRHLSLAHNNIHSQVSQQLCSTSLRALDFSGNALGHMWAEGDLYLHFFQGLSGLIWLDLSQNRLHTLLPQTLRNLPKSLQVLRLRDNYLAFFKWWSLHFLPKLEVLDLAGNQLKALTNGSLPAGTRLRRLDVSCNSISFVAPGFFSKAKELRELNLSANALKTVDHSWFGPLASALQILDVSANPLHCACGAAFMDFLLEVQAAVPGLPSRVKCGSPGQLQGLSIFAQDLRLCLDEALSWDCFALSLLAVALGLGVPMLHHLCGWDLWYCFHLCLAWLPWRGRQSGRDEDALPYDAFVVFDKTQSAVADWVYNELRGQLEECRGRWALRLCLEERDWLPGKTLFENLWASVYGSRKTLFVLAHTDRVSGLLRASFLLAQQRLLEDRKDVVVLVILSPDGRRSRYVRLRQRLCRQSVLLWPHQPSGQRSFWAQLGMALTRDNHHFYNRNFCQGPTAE

[7] = Binding affinity to synthetic ODN2006 assessed as ICD band around 300 nm at 3 x 10^5 10^-6mol/dm3 at pH 5.7 by CD spectroscopic method
[8] = Binding affinity to synthetic ODN2006 at 0.01 mol/dm3 at pH 5.7 by fluorescence spectroscopic method
[9] = Solubility of the compound in water; type: physicochemical; conditions: buffer
[10] = molecular target: T1, Toll-like receptor 8 (Homo sapiens); experiment: Activation of human TLR8 expressed in HEK293 cells assessed as induction of NF-kB at 0.1 to 5 uM after 18 hrs by luciferase reporter gene assay; type: cell-based
[11] = Binding affinity to synthetic ODN2006 at 0.01 mol/dm3 at pH 7 by fluorescence spectroscopic method
[12] = Binding affinity to synthetic ODN2216 assessed as negative ICD band around 240 to 340 nm at 3 x 10^5 10^-6mol/dm3 at pH 5.7 by CD spectroscopic method
[13] = molecular target: T3, Toll-like receptor 9 (Homo sapiens); experiment: Inhibition of human TLR9 activation expressed in HEK293 cells assessed as reduction in ODN2006-induced NF-kB activation up to 5 uM after 18 hrs by luciferase reporter gene assay; type: cell-based
THP-1 = experiment: Cytotoxicity against human THP1 cells assessed as reduction in cell viability up to 10 uM after 24 hrs by MTT assay; type: cell-based; conditions: thp-1, 24 h
[14] = molecular target: T2, Toll-like receptor 7 (Homo sapiens); experiment: Activation of human TLR7 expressed in HEK293 cells assessed as induction of NF-kB at 0.1 to 5 uM after 18 hrs by luciferase reporter gene assay; type: cell-based
[15] = Binding affinity to synthetic ODN2006 assessed as ratio of fluorescence intensity of compound-ODN complex to fluorescence intensity of compound at 0.01 mol/dm3 at pH 5.7 by fluorescence spectroscopic method
PBMC [16] = experiment: Immunomodulatory activity in human PBMC assessed as induction of IL-8 secretion after 24 hrs by ELISA; type: functional, cell-based
PBMC [17] = experiment: Immunomodulatory activity in human PBMC assessed as induction of IL-1beta secretion at 10 uM after 24 hrs by ELISA; type: functional, cell-based
PBMC [18] = experiment: Cytotoxicity against human PBMC assessed as reduction in cell viability up to 10 uM after 24 hrs by MTT assay; type: cell-based
[19] = molecular target: T3, Toll-like receptor 9 (Homo sapiens); experiment: Inhibition of TLR9 in PMA-induc ed human THP1 cells assessed as reduction in ODN2216-induced TNFalpha by ELISA
[20] = Binding affinity to synthetic ODN2216 at 0.01 mol/dm3 at pH 5.7 by fluorescence spectroscopic method
HEK293 = experiment: Cytotoxicity against HEK293 cells assessed as reduction in cell viability up to 10 uM after 24 hrs by MTT assay; type: cell-based; conditions: human, hek293, 24 h
[21] = Binding affinity to synthetic ODN2006 assessed as ratio of fluorescence intensity of compound-ODN complex to fluorescence intensity of compound at 0.01 mol/dm3 at pH 7 by fluorescence spectroscopic method
[22] = Binding affinity to synthetic ODN2216 assessed as ratio of fluorescence intensity of compound-ODN complex to fluorescence intensity of compound at 0.01 mol/dm3 at pH 5.7 by fluorescence spectroscopic method
[23] = molecular target: Toll-like receptor 3 (Homo sapiens) (UniProt O15455); experiment: Inhibition of human TLR3 expressed in HEK293 cells assessed as reduction in poly(I:C)-induced NF-kB activation up to 5 uM after 18 hrs by luciferase reporter gene assay; type: cell-based
Chain of Toll-like receptor 3 (Homo sapiens) (O15455 whole entry): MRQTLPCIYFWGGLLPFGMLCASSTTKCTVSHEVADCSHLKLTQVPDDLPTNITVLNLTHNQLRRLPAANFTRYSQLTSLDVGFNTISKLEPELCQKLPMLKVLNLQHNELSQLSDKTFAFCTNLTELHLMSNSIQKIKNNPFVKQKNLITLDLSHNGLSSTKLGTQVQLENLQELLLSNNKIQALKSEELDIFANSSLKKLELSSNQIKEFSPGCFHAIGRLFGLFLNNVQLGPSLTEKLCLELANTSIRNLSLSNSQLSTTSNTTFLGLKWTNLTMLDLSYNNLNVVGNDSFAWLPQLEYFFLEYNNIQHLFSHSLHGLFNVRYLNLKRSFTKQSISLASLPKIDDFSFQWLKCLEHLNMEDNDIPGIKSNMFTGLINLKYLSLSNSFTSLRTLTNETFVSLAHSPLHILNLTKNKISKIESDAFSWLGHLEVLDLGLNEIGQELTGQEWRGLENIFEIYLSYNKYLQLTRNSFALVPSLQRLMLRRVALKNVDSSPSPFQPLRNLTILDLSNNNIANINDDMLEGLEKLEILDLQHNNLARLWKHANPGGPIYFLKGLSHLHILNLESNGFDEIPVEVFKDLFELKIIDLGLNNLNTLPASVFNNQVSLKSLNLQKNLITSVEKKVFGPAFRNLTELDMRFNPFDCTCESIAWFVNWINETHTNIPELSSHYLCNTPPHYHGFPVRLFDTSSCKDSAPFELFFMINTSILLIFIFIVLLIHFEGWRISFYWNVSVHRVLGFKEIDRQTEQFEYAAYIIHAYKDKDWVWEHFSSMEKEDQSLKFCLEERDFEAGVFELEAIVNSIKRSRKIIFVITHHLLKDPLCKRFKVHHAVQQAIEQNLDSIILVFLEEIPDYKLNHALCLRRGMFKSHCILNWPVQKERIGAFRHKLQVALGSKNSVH

[24] = molecular target: Toll-like receptor 3 (Homo sapiens) (UniProt O15455); experiment: Inhibition of TLR3 in human PBMC assessed as reduction in poly(I:C)-stimulated IL-6 expression at 1 uM by ELISA relative to control
[25] = Binding affinity to synthetic ODN2006 assessed as ICD band around 301 nm at 3 x 10^5 10^-6mol/dm3 at pH 7 by CD spectroscopic method
[26] = molecular target: Toll-like receptor 3 (Homo sapiens) (UniProt O15455); experiment: Inhibition of TLR3 in human PBMC assessed as reduction in poly(I:C)-stimulated IL-6 expression at 1 to 10 uM by ELISA relative to control
PBMC [27] = experiment: Immunomodulatory activity in human PBMC assessed as induction of IL-6 secretion at 10 uM after 24 hrs by ELISA; type: functional, cell-based
PBMC [28] = experiment: Immunomodulatory activity in human PBMC assessed as induction of INFalpha secretion at 10 uM after 24 hrs by ELISA; type: functional, cell-based
[29] = Binding affinity to synthetic ODN2216 assessed as negative ICD band around 240 to 340 nm at 3 x 10^5 10^-6mol/dm3 at pH 7 by CD spectroscopic method
[30] = molecular target: T3, Toll-like receptor 9 (Homo sapiens); experiment: Inhibition of TLR9 in human PBMC assessed as reduction in ODN2216-stimulated IFNalpha expression at 1 to 10 uM by ELISA

SMILES: CC(C)Cn1cnc2c(N)nc3ccccc3c21
- Activity (PBMC [1]): Active

SMILES: CCOCc1nc2c(N)nc3ccccc3c2n1CC(C)(C)O
- Activity (PBMC [2]): Active

SMILES: CCOCc1nc2c(N)nc3ccccc3c2[nH]1
- Activity [3]: Active
- Activity [4]: Active

SMILES: CCNC(=O)Nc1ccc2c(c1)c(C)nc1ccccc12
- Activity (PBMC [5]): Active
- inhibition [6]: inactive
- Activity [7]: inactive
- log Ks [8]: 4.5
- solubility [9]: Insoluble
- Activity [10]: inactive
- log Ks [11]: 5.4
- Activity [12]: Active
- inhibition [13]: Active
- Activity (THP-1): Non-Toxic
- Activity [14]: inactive
- Ratio [15]: 0.2
- Activity (PBMC [16]): Dose-dependent effect
- Activity (PBMC [17]): inactive
- Activity (PBMC [18]): Non-Toxic
- inhibition [19]: Dose-dependent effect
- log Ks [20]: 4.04
- Activity (HEK293): Non-Toxic
- Ratio [21]: 0.6
- Ratio [22]: 0.73
- inhibition [23]: Active
- inhibition [24]: 50%
- Activity [25]: Active
- inhibition [26]: Active
- Activity (PBMC [27]): Active
- Activity (PBMC [28]): inactive
- Activity [29]: Active
- inhibition [30]: Active
